This note sets out measurements from the OligoGym collection.

HELM strings list units from the 5' end as sugar, base in round brackets, then linkage (d deoxyribose, r ribose, m 2'-O-methyl, p phosphodiester). Strings are as the collection lists them; they lack the last nucleoside at the 3' end of the tested compound. [moe] = 2'-O-(2-methoxyethyl) (MOE); [sp] = phosphorothioate linkage; [m5C] = 5-methylcytosine

This data set concerns the target GFAP. Description: mouse, dose not given. Conditions: ASO.
In turn, “RNA1{[moe](T)[sp].[moe](G)p.[moe](T)p.[moe](G)p.d(T)[sp].d(A)[sp].d(T)[sp].d(T)[sp].d(A)[sp].d(G)[sp].d(G)[sp].d(A)[sp].d(T)[sp].d([m5C])[sp].[moe]([m5C])p.[moe]([m5C])p.[moe](A)p.[moe](T)[sp].[moe]([m5C])}$$$$ (last 3' nucleoside missing)” displayed a 3 h FOB score of 3 score 0-7. Under “RNA1{[moe](G)[sp].[moe](T)p.[moe](G)p.[moe](T)p.[moe](A)p.[moe](T)p.d(T)[sp].d(A)[sp].d(G)[sp].d(G)[sp].d(A)[sp].d(T)[sp].d([m5C])[sp].d([m5C])[sp].d([m5C])[sp].d(A)[sp].[moe](T)p.[moe]([m5C])[sp].[moe](T)}$$$$ (last 3' nucleoside missing)” stands 4 score 0-7; under “RNA1{[moe]([m5C])[sp].[moe](A)p.[moe](G)p.[moe]([m5C])p.[moe]([m5C])p.d(T)[sp].d(G)[sp].d(G)[sp].d(T)[sp].d(T)[sp].d(A)[sp].d(G)[sp].d([m5C])[sp].d([m5C])[sp].d(T)[sp].[moe](T)p.[moe](T)p.[moe]([m5C])[sp].[moe](T)}$$$$ (last 3' nucleoside missing)”, 5 score 0-7. Consider “RNA1{[moe](G)[sp].[moe](A)p.[moe](G)p.[moe](T)p.d(G)[sp].d(T)[sp].d(G)[sp].d(T)[sp].d(A)[sp].d(T)[sp].d(T)[sp].d(A)[sp].d(G)[sp].d(G)[sp].[moe](A)p.[moe](T)p.[moe]([m5C])p.[moe]([m5C])[sp].[moe]([m5C])}$$$$ (last 3' nucleoside missing)”, for which the 3 h FOB score amounted to 4 score 0-7. “RNA1{[moe](G)[sp].[moe]([m5C])p.[moe](T)p.[moe](T)p.[moe](T)p.d(T)[sp].d(G)[sp].d([m5C])[sp].d([m5C])[sp].d([m5C])[sp].d([m5C])[sp].d([m5C])[sp].d(T)[sp].d(G)[sp].d(T)[sp].[moe](A)p.[moe](G)p.[moe](T)[sp].[moe](G)}$$$$ (last 3' nucleoside missing)” came in with a 3 h FOB score of 4 score 0-7. Next, “RNA1{[moe](A)[sp].[moe](G)p.[moe]([m5C])p.[moe]([m5C])p.[moe]([m5C])[sp].d([m5C])[sp].d(A)[sp].d([m5C])[sp].d([m5C])[sp].d(T)[sp].d(A)[sp].d(G)[sp].d(A)[sp].d(A)[sp].d(G)[sp].[moe](T)p.[moe](A)p.[moe]([m5C])[sp].[moe]([m5C])}$$$$ (last 3' nucleoside missing)”: 2 score 0-7; “RNA1{[moe](T)[sp].[moe](T)p.[moe](G)p.[moe](T)p.[moe]([m5C])[sp].d(T)[sp].d(T)[sp].d(T)[sp].d(A)[sp].d(T)[sp].d(T)[sp].d(T)[sp].d(T)[sp].d(T)[sp].d([m5C])[sp].[moe]([m5C])p.[moe](T)p.[moe]([m5C])[sp].[moe](A)}$$$$ (last 3' nucleoside missing)”: 1 score 0-7; “RNA1{[moe](T)[sp].[moe](T)p.[moe](T)p.[moe](A)p.d(T)[sp].d(T)[sp].d(T)[sp].d(T)[sp].d(T)[sp].d([m5C])[sp].d([m5C])[sp].d(T)[sp].d([m5C])[sp].d(A)[sp].[moe](G)p.[moe]([m5C])p.[moe](G)p.[moe](A)[sp].[moe]([m5C])}$$$$ (last 3' nucleoside missing)”: 0 score 0-7. For the substance “RNA1{[moe](A)[sp].[moe](G)p.[moe]([m5C])p.[moe]([m5C])p.[moe](T)[sp].d(G)[sp].d(G)[sp].d(T)[sp].d(T)[sp].d(A)[sp].d(G)[sp].d([m5C])[sp].d([m5C])[sp].[moe](T)p.[moe](T)p.[moe](T)[sp].[moe]([m5C])}$$$$ (last 3' nucleoside missing)”, the 3 h FOB score amounted to 4 score 0-7. Next, “RNA1{[moe]([m5C])[sp].[moe](T)p.[moe](G)p.[moe]([m5C])p.[moe](T)[sp].d([m5C])[sp].d(T)[sp].d(T)[sp].d(T)[sp].d([m5C])[sp].d([m5C])[sp].d([m5C])[sp].d(T)[sp].d([m5C])[sp].d(A)[sp].[moe]([m5C])p.[moe](T)p.[moe](T)[sp].[moe](T)}$$$$ (last 3' nucleoside missing)”: 0 score 0-7; “RNA1{[moe](G)[sp].[moe](T)p.[moe]([m5C])p.[moe](A)p.[moe]([m5C])p.[moe](A)p.d(T)[sp].d(T)[sp].d([m5C])[sp].d(A)[sp].d([m5C])[sp].d(T)[sp].d(A)[sp].d(A)[sp].d(T)[sp].d(A)[sp].[moe](T)p.[moe](T)[sp].[moe](T)}$$$$ (last 3' nucleoside missing)”: 0 score 0-7. Under “RNA1{[moe]([m5C])[sp].[moe]([m5C])p.[moe]([m5C])p.[moe](T)p.[moe]([m5C])[sp].d(T)[sp].d(T)[sp].d([m5C])[sp].d([m5C])[sp].d(T)[sp].d([m5C])[sp].d([m5C])[sp].d(A)[sp].d(G)[sp].d([m5C])[sp].[moe]([m5C])p.[moe](G)p.[moe]([m5C])[sp].[moe](G)}$$$$ (last 3' nucleoside missing)” stands 5 score 0-7; under “RNA1{[moe](A)[sp].[moe]([m5C])p.[moe](T)p.[moe](A)p.[moe](G)p.d(T)[sp].d([m5C])[sp].d(A)[sp].d(G)[sp].d([m5C])[sp].d([m5C])[sp].d(T)[sp].d(G)[sp].d(G)[sp].d(T)[sp].[moe](T)p.[moe](A)p.[moe](G)[sp].[moe]([m5C])}$$$$ (last 3' nucleoside missing)”, 2 score 0-7; under “RNA1{[moe]([m5C])[sp].[moe](T)p.[moe](T)p.[moe](G)p.d(T)[sp].d(G)[sp].d(A)[sp].d(T)[sp].d(T)[sp].d(T)[sp].d(T)[sp].d([m5C])[sp].d([m5C])[sp].d([m5C])[sp].[moe]([m5C])p.[moe](G)p.[moe](T)p.[moe]([m5C])[sp].[moe](T)}$$$$ (last 3' nucleoside missing)”, 0 score 0-7. Under “RNA1{[moe](G)[sp].[moe]([m5C])p.[moe](T)p.[moe](T)p.d(T)[sp].d(T)[sp].d(G)[sp].d(A)[sp].d(G)[sp].d(A)[sp].d(T)[sp].d(A)[sp].d(T)[sp].d([m5C])[sp].[moe](T)p.[moe](T)p.[moe](G)p.[moe](T)[sp].[moe](G)}$$$$ (last 3' nucleoside missing)” stands 1 score 0-7; under “RNA1{[moe](A)[sp].[moe](G)p.[moe](T)p.[moe]([m5C])p.[moe](A)p.[moe](G)p.d([m5C])[sp].d([m5C])[sp].d(T)[sp].d(G)[sp].d(G)[sp].d(T)[sp].d(T)[sp].d(A)[sp].d(G)[sp].d([m5C])[sp].[moe]([m5C])p.[moe](T)[sp].[moe](T)}$$$$ (last 3' nucleoside missing)”, 3 score 0-7; under “RNA1{[moe](A)[sp].[moe](T)p.[moe](T)p.[moe](T)p.[moe](G)p.[moe](G)p.d([m5C])[sp].d(A)[sp].d(G)[sp].d(T)[sp].d(A)[sp].d(T)[sp].d(T)[sp].d(A)[sp].d([m5C])[sp].d([m5C])[sp].[moe](T)p.[moe]([m5C])[sp].[moe](T)}$$$$ (last 3' nucleoside missing)”, 0 score 0-7. In the case of “RNA1{[moe](T)[sp].[moe]([m5C])p.[moe]([m5C])p.[moe](T)p.[moe]([m5C])[sp].d(A)[sp].d(A)[sp].d(G)[sp].d(A)[sp].d(A)[sp].d([m5C])[sp].d([m5C])[sp].d(G)[sp].d(G)[sp].d(A)[sp].[moe](T)p.[moe]([m5C])p.[moe](T)[sp].[moe]([m5C])}$$$$ (last 3' nucleoside missing)”, the 3 h FOB score amounted to 1 score 0-7.

“RNA1{[moe](T)[sp].[moe]([m5C])p.[moe](T)p.[moe](T)p.[moe](T)[sp].d(A)[sp].d(T)[sp].d(T)[sp].d(T)[sp].d(T)[sp].d(T)[sp].d([m5C])[sp].d([m5C])[sp].[moe](T)p.[moe]([m5C])p.[moe](A)[sp].[moe](G)}$$$$ (last 3' nucleoside missing)” registered a 3 h FOB score of 1 score 0-7. Consider “RNA1{[moe]([m5C])[sp].[moe](A)p.[moe](T)p.[moe](T)p.[moe](T)[sp].d(G)[sp].d(T)[sp].d([m5C])[sp].d(T)[sp].d(T)[sp].d(T)[sp].d(A)[sp].d(T)[sp].d(T)[sp].d(T)[sp].[moe](T)p.[moe](T)p.[moe]([m5C])[sp].[moe]([m5C])}$$$$ (last 3' nucleoside missing)”, for which the 3 h FOB score worked out at 0 score 0-7. Next, “RNA1{[moe](T)[sp].[moe](T)p.[moe](T)p.[moe](G)p.d(T)[sp].d([m5C])[sp].d(T)[sp].d(T)[sp].d(T)[sp].d(A)[sp].d(T)[sp].d(T)[sp].d(T)[sp].d(T)[sp].[moe](T)p.[moe]([m5C])p.[moe]([m5C])p.[moe](T)[sp].[moe]([m5C])}$$$$ (last 3' nucleoside missing)”: 1 score 0-7.

As to “RNA1{[moe](T)[sp].[moe](G)p.[moe](T)p.[moe](G)p.[moe](T)[sp].d(A)[sp].d(T)[sp].d(T)[sp].d(A)[sp].d(G)[sp].d(G)[sp].d(A)[sp].d(T)[sp].[moe]([m5C])p.[moe]([m5C])p.[moe]([m5C])[sp].[moe](A)}$$$$ (last 3' nucleoside missing)”, the 3 h FOB score was 4 score 0-7. Next, “RNA1{[moe](T)[sp].[moe](G)p.[moe](T)p.[moe]([m5C])p.[moe](T)[sp].d(T)[sp].d(T)[sp].d(A)[sp].d(T)[sp].d(T)[sp].d(T)[sp].d(T)[sp].d(T)[sp].d([m5C])[sp].d([m5C])[sp].[moe](T)p.[moe]([m5C])p.[moe](A)[sp].[moe](G)}$$$$ (last 3' nucleoside missing)”: 2 score 0-7; “RNA1{[moe](G)[sp].[moe]([m5C])p.[moe]([m5C])p.[moe](A)p.[moe](A)[sp].d(A)[sp].d(T)[sp].d([m5C])[sp].d([m5C])[sp].d([m5C])[sp].d([m5C])[sp].d(T)[sp].d([m5C])[sp].d(T)[sp].d(T)[sp].[moe]([m5C])p.[moe]([m5C])p.[moe]([m5C])[sp].[moe](A)}$$$$ (last 3' nucleoside missing)”: 0 score 0-7. Next, “RNA1{[moe](G)[sp].[moe](A)p.[moe](A)p.[moe](T)p.[moe]([m5C])[sp].d(A)[sp].d(T)[sp].d(T)[sp].d(T)[sp].d([m5C])[sp].d(A)[sp].d(G)[sp].d(G)[sp].d(G)[sp].d([m5C])[sp].[moe]([m5C])p.[moe](A)p.[moe](A)[sp].[moe](T)}$$$$ (last 3' nucleoside missing)”: 6 score 0-7.
